From patent US20260167632A1, “NICOTINAMIDE DERIVATIVES FOR USE IN TREATING DISORDERS ASSOCIATED WITH KCNK13 ACTIVITY” (Cerevance, Inc., priority 2022, published 2026)

Biological target: T1, human KCNK13 (Homo sapiens, UniProt Q9HB14)
T1 construct: expressed in transfected cells
T1 sequence (Q9HB14 1-408): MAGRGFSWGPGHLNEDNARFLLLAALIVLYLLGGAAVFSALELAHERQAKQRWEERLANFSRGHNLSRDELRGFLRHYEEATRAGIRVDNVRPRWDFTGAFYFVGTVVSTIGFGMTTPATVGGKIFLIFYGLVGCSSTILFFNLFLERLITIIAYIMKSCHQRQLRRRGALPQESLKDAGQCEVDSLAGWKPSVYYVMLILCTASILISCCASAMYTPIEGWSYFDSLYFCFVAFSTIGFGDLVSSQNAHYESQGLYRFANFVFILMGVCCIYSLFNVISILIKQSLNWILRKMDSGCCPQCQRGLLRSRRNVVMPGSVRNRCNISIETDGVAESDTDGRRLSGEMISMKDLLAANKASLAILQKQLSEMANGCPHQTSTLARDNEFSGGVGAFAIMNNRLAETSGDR
Assay: KCNK13 antagonist activity, thallium flux FLIPR assay in HEK 293 cells stably expressing human KCNK13
Format: cell-based
Settings: HEK 293 cells stably expressing human KCNK13, Tl+ sensitive dye, compound 15 min before thallium sulfate, ten point curves; read-out: hKCNK13 IC50
Experimental: 4. Biological Efficacy of Compounds of the Invention
KCNK13 antagonist activity was determined by measuring changes in intracellular Thallium (Tl^+) concentrations using a Tl^+ sensitive fluorescent dye. The changes in fluorescent signal were monitored by Fluorescent Imaging Plate Reader (FLIPR™) technology available from Molecular Devices, LLC, US. KCNK13 mediated increases in intracellular Tl^+ concentration were readily detected by addition of a thallium sulfate Stimulus. 24 hours prior to the assay, human embryonic kidney 293 cells (HEK 293 cells) stably expressing human KCNK13 were seeded in cell culture medium in PDL coated black, clear-bottom 384-well plates (commercially available from Corning Inc., 356663) and grown overnight at 37° C., […]. On the day of the assay, cell culture media was removed and cells were loaded with potassium dye (commercially sold by Molecular Devices, LLC, US, R8222) for 1 hour at room temperature in the dark. Test compounds (at 10 point half log concentration response curves from 100 µM) were added to cells for 15 minutes prior to the addition of thallium sulfate to all wells. The IC50 values were determined from ten point concentration response curves. Curves were generated using the average of two wells for each data point.

Row | Compound | IC50 [µM]
1 | COc1ncc(F)cc1C(=O)N(C)C(C)c1ccc(F)cc1F (single isomer, unassigned) [Example 69, N-(1-(2,4-difluorophenyl)ethyl)-5-fluoro-2-methoxy-N-methylnicotinamide] | ≤ 0.2
2 | CC(c1ccccc1F)N(C)C(=O)c1cc(F)cnc1OC(F)F (single isomer, unassigned) [Example 70, 2-(difluoromethoxy)-5-fluoro-N-(1-(2-fluorophenyl)ethyl)-N-methylnicotinamide] | ≤ 0.2
3 | CC(c1ccccc1F)N(C)C(=O)c1cc(F)cnc1OC(F)F (single isomer, unassigned) [Example 71, 2-(difluoromethoxy)-5-fluoro-N-(1-(2-fluorophenyl)ethyl)-N-methylnicotinamide] | ≤ 0.1
4 | CC(c1cccc(F)c1)N(C)C(=O)c1cc(Cl)cnc1OC(F)F (single isomer, unassigned) [Example 86, 5-chloro-2-(difluoromethoxy)-N-(1-(3-fluorophenyl)ethyl)-N-methylnicotinamide] | ≤ 0.1
5 | CC(c1cccc(F)c1)N(C)C(=O)c1cc(Cl)cnc1OC(F)F (single isomer, unassigned) [Example 87, 5-chloro-2-(difluoromethoxy)-N-(1-(3-fluorophenyl)ethyl)-N-methylnicotinamide] | ≤ 0.2
6 | CC(c1cccc(F)c1)N(C)C(=O)c1cc(F)cnc1OC(F)F (single isomer, unassigned) [Example 88, 2-(difluoromethoxy)-5-fluoro-N-(1-(3-fluorophenyl)ethyl)-N-methylnicotinamide] | ≤ 0.1
7 | CC(c1cccc(F)c1)N(C)C(=O)c1cc(F)cnc1OC(F)F (single isomer, unassigned) [Example 89, 2-(difluoromethoxy)-5-fluoro-N-(1-(3-fluorophenyl)ethyl)-N-methylnicotinamide] | ≤ 0.2
8 | COc1ncc(Cl)cc1C(=O)N(C)Cc1ccccc1 [Example 1, N-benzyl-5-chloro-2-methoxy-N-methylnicotinamide] | ≤ 0.1
9 | COc1ncc(Cl)cc1C(=O)N(C)C1CCc2ccc(C#N)cc21 (stereo not shown) [Example 2, 5-chloro-N-(6-cyano-2,3-dihydro-1H-inden-1-yl)-2-methoxy-N-methylnicotinamide] | ≤ 1
10 | COc1ncc(Cl)cc1C(=O)N(C)C1CCc2cccc(C#N)c21 (stereo not shown) [Example 3, 5-chloro-N-(7-cyano-2,3-dihydro-1H-inden-1-yl)-2-methoxy-N-methylnicotinamide] | ≤ 0.5
11 | COc1ncc(F)cc1C(=O)N1CCCCC1c1cccc(F)c1 (stereo not shown) [Example 4, (5-fluoro-2-methoxypyridin-3-yl)(2-(3-fluorophenyl)piperidin-1-yl)methanone] | ≤ 1
12 | COc1nc(C)ccc1C(=O)N(C)Cc1ccc(F)cc1F [Example 11, N-(2,4-difluorobenzyl)-2-methoxy-N,6-dimethylnicotinamide] | ≤ 1
13 | COc1ncccc1C(=O)N(C)Cc1cccc(F)c1 [Example 32, N-(3-fluorobenzyl)-2-methoxy-N-methylnicotinamide] | ≤ 1
14 | COc1ncccc1C(=O)N(C)Cc1ccccc1F [Example 33, N-(2-fluorobenzyl)-2-methoxy-N-methylnicotinamide] | ≤ 0.5
15 | COc1ncc(F)cc1C(=O)N(C)C1(c2cccc(F)c2)CC1 [Example 34, 5-fluoro-N-(1-(3-fluorophenyl)cyclopropyl)-2-methoxy-N-methylnicotinamide] | ≤ 0.5
16 | COc1ncc(F)cc1C(=O)N(C)C1COc2ccc(F)cc21 (stereo not shown) [Example 35, 5-fluoro-N-(5-fluoro-2,3-dihydrobenzofuran-3-yl)-2-methoxy-N-methylnicotinamide] | ≤ 0.5
17 | COc1ncc(F)cc1C(=O)N(C)Cc1ccccc1C#N [Example 36, N-(2-cyanobenzyl)-5-fluoro-2-methoxy-N-methylnicotinamide] | ≤ 0.5
18 | COc1ncc(F)cc1C(=O)N(C)Cc1ccccc1F [Example 37, 5-fluoro-N-(2-fluorobenzyl)-2-methoxy-N-methylnicotinamide] | ≤ 0.2
19 | COc1ncc(F)cc1C(=O)N(C)Cc1cccc(F)c1F [Example 38, N-(2,3-difluorobenzyl)-5-fluoro-2-methoxy-N-methylnicotinamide] | ≤ 0.5
20 | COc1ncc(Cl)cc1C(=O)N(C)Cc1cccc(F)c1F [Example 40, 5-chloro-N-(2,3-difluorobenzyl)-2-methoxy-N-methylnicotinamide] | ≤ 0.2

Row | Compound | IC50 [µM]
21 | COc1ncc(Cl)cc1C(=O)N(C)Cc1cc(F)cc(F)c1 [Example 41, 5-chloro-N-(3,5-difluorobenzyl)-2-methoxy-N-methylnicotinamide] | ≤ 0.2
22 | COc1ncc(F)cc1C(=O)N(C)C1COc2cc(F)ccc21 (stereo not shown) [Example 42, 5-fluoro-N-(6-fluoro-2,3-dihydrobenzofuran-3-yl)-2-methoxy-N-methylnicotinamide] | ≤ 1
23 | COc1ncc(Cl)cc1C(=O)N(C)C1CCOc2cc(F)ccc21 (stereo not shown) [Example 43, 5-chloro-N-(7-fluorochroman-4-yl)-2-methoxy-N-methylnicotinamide] | ≤ 1
24 | COc1ncc(Cl)cc1C(=O)N(C)Cc1cc(F)cc(Cl)c1 [Example 44, 5-chloro-N-(3-chloro-5-fluorobenzyl)-2-methoxy-N-methylnicotinamide] | ≤ 0.2
25 | CCN(Cc1ccccc1)C(=O)c1cc(Cl)cnc1OC [Example 47, N-benzyl-5-chloro-N-ethyl-2-methoxynicotinamide] | ≤ 1
26 | CCN(Cc1ccccc1F)C(=O)c1cc(Cl)cnc1OC [Example 48, 5-chloro-N-ethyl-N-(2-fluorobenzyl)-2-methoxynicotinamide] | ≤ 0.5
27 | CCN(Cc1cccc(F)c1)C(=O)c1cc(Cl)cnc1OC [Example 49, 5-chloro-N-ethyl-N-(3-fluorobenzyl)-2-methoxynicotinamide] | ≤ 1
28 | COc1ncc(F)cc1C(=O)N(C)Cc1cccc(F)c1 [Example 50, 5-fluoro-N-(3-fluorobenzyl)-2-methoxy-N-methylnicotinamide] | ≤ 0.2
29 | COc1ncc(C)cc1S(=O)(=O)N1CCc2ccccc2C1 [Example 51, 2-((2-methoxy-5-methylpyridin-3-yl)sulfonyl)-1,2,3,4-tetrahydroisoquinoline] | ≤ 0.2
30 | COc1ncc(Cl)cc1S(=O)(=O)N1CCc2ccccc2C1 [Example 52, 2-((5-chloro-2-methoxypyridin-3-yl)sulfonyl)-1,2,3,4-tetrahydroisoquinoline] | ≤ 0.2
31 | COc1ncc(C)cc1S(=O)(=O)N1CCOc2ccc(F)cc2C1 [Example 53, 7-fluoro-4-((2-methoxy-5-methylpyridin-3-yl)sulfonyl)-2,3,4,5-tetrahydrobenzo[f][1,4]oxazepine] | ≤ 0.5
32 | COc1ncc(Cl)cc1S(=O)(=O)N1CCOc2ccc(F)cc2C1 [Example 54, 4-((5-chloro-2-methoxypyridin-3-yl)sulfonyl)-7-fluoro-2,3,4,5-tetrahydrobenzo[f][1,4]oxazepine] | ≤ 0.5
33 | COc1ncccc1S(=O)(=O)N1CCOc2ccc(F)cc2C1 [Example 55, 7-fluoro-4-((2-methoxypyridin-3-yl)sulfonyl)-2,3,4,5-tetrahydrobenzo[f][1,4]oxazepine] | ≤ 0.5
34 | COC(=O)c1ccc(F)cc1CN(C)C(=O)c1cc(F)cnc1OC [Example 56, methyl 4-fluoro-2-((5-fluoro-2-methoxy-N-methylnicotinamido)methyl)benzoate] | ≤ 0.5
35 | COc1ncc(Cl)cc1C(=O)N(C)Cc1ccc(F)cc1C(F)(F)F [Example 57, 5-chloro-N-(4-fluoro-2-(trifluoromethyl)benzyl)-2-methoxy-N-methylnicotinamide] | ≤ 1
36 | COc1ncc(Cl)cc1C(=O)N(C)Cc1ccc(F)cc1C#N [Example 58, 5-chloro-N-(2-cyano-4-fluorobenzyl)-2-methoxy-N-methylnicotinamide] | ≤ 0.2
37 | COc1ncc(F)cc1C(=O)N(C)Cc1c(F)cc(F)cc1C#N [Example 61, N-(2-cyano-4,6-difluorobenzyl)-5-fluoro-2-methoxy-N-methylnicotinamide] | ≤ 1
38 | COc1ncc(C)cc1C(=O)N(C)Cc1ccc(F)cc1F [Example 72, N-(2,4-difluorobenzyl)-2-methoxy-N,5-dimethylnicotinamide] | ≤ 0.2
39 | COc1nccc(C)c1C(=O)N(C)Cc1ccc(F)cc1F [Example 73, N-(2,4-difluorobenzyl)-2-methoxy-N,4-dimethylnicotinamide] | ≤ 0.5
40 | CN(C(=O)c1cc(F)cnc1OC(F)F)C1COc2cc(F)ccc21 (stereo not shown) [Example 74, 2-(difluoromethoxy)-5-fluoro-N-(6-fluoro-2,3-dihydrobenzofuran-3-yl)-N-methylnicotinamide] | ≤ 0.5
